Source: patent US20260242563A1, “DEGRADABLE CROSSLINKING AGENT” (NAGASE CHEMTEX CORPORATION, priority 2023, published 2026)

Test: Adding a small amount of 12% sodium hypochlorite aqueous solution to the cross-linking agent compound
Format: physicochemical
Conditions: small amount of 12% sodium hypochlorite aqueous solution added to the compound

SMILES | degradation product generated (confirmed by 1H-NMR) | observation upon adding oxidizing agent
C=CCOC(=O)NNC(=O)OCCCCCCOC(=O)NNC(=O)OCC=C [Formula (A3)] | 1,6-hexanediol | foaming occurred
C=CCOC(=O)NNC(=O)CCC(NC(=O)NNC(=O)c1cc(C(=O)NNC(=O)NC(CCC(=O)NNC(=O)OCC=C)C(=O)NNC(=O)OCC=C)cc(S(=O)(=O)[O-])c1)C(=O)NNC(=O)OCC=C.[Na+] (centres unmarked) [Formula (A7)] | sodium 5-sulfoisophthalate and glutamic acid | foaming occurred
C=CCOC(=O)NNC(=O)CCC(NC(=O)NNC(=O)CCC(=O)NNC(=O)NC(CCC(=O)NNC(=O)OCC=C)C(=O)NNC(=O)OCC=C)C(=O)NNC(=O)OCC=C (centres unmarked) [Formula (A8)] | succinic acid and glutamic acid | foaming occurred
C=C(C)C(=O)NNC(=O)c1ccc(OCC(O)COc2ccc(C(C)(C)c3ccc(OCC(O)COc4ccc(C(=O)NNC(=O)C(=C)C)cc4)cc3)cc2)cc1 (centres unmarked) [Formula (B), reference compound] | compound of formula (C) | foaming occurred

Continued, values first:

degradation product generated (confirmed by 1H-NMR) | observation upon adding oxidizing agent | SMILES
triethylene glycol | foaming occurred | C=C(C)C(=O)NNC(=O)OCCOCCOCCOC(=O)NNC(=O)C(=C)C [Formula (A1)]
sodium 5-sulfoisophthalate | foaming occurred | NNC(=O)CCC(NC(=O)NNC(=O)c1cc(C(=O)NNC(=O)NC(=O)NC(CCC(=O)NN)C(=O)NN)cc(S(=O)(=O)[O-])c1)C(=O)NN.[Na+] (centres unmarked) [Formula (A6)]

Test: Water solubility of degradation products in ion exchange water at 20° C.
Conditions: 0.3 g in 10 mL of ion exchange water

water solubility | SMILES
insoluble | CC(C)(c1ccc(OCC(O)COc2ccc(C(=O)O)cc2)cc1)c1ccc(OCC(O)COc2ccc(C(=O)O)cc2)cc1 (centres unmarked) [Formula (C)]
insoluble | O=C(O)c1cc(C(=O)O)cc(C(=O)O)c1 [trimesic acid]

Same assay, conditions: 0.5 g in 10 mL of ion exchange water

SMILES | water solubility
O=C(O)CCCCCO [6-hydroxyhexanoic acid] | soluble

Same assay, conditions: 2 g in 10 mL of ion exchange water

water solubility | SMILES
soluble | OCCOCCOCCO [triethylene glycol]

Same assay, conditions: one gram in 10 mL of ion exchange water

SMILES | water solubility
OCCCCCCO [1,6-hexanediol] | soluble
OCCOCCOCCO [triethylene glycol] | soluble

The next lines start with the values.

water solubility | SMILES
soluble | O=C(O)c1cc(C(=O)O)cc(S(=O)(=O)O)c1 [5-sulfoisophthalic acid]
soluble | NCCCCCCN [hexamethylenediamine]
